Among the data in ChEMBL document CHEMBL3991601, “The target landscape of clinical kinase drugs” (Science, 2017) are Kd values, retold here.

Molecules are shown by their SMILES. Active and inactive are the calls of the source. Rule as the data show it, for most assays here: actives have a measured Kd and inactives only a lower limit.

The target in test [1] is Cyclin-dependent kinase 1 (Homo sapiens, UniProt P06493).
The target in test [2] is Casein kinase I isoform gamma-1 (Homo sapiens, UniProt Q9HCP0).
For the next test, the target named is Deoxycytidine kinase (Homo sapiens, UniProt P27707).
Test [3] concerns the target T1, Mitogen-activated protein kinase kinase kinase 2 (Homo sapiens, UniProt Q9Y2U5).
T1 sequence (Q9Y2U5 whole entry): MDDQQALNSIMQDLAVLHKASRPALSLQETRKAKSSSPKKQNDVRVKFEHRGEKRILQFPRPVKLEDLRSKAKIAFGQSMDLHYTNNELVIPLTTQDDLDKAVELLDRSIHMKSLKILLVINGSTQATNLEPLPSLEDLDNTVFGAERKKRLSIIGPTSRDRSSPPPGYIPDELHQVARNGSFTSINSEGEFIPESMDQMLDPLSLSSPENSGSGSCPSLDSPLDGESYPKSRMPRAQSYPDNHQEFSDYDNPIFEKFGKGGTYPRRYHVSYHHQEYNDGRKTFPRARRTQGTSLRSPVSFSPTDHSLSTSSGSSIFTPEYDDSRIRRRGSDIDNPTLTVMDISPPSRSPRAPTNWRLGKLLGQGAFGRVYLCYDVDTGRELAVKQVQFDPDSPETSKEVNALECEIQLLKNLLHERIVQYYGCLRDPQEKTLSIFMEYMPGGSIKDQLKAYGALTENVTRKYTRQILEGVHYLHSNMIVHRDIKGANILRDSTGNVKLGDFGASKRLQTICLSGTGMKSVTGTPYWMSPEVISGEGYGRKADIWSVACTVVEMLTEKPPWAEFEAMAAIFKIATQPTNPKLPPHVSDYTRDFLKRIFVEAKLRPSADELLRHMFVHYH

Test [4] has as its target T2, Serine/threonine-protein kinase Nek3 (Homo sapiens, UniProt P51956).
T2 sequence (P51956 whole entry): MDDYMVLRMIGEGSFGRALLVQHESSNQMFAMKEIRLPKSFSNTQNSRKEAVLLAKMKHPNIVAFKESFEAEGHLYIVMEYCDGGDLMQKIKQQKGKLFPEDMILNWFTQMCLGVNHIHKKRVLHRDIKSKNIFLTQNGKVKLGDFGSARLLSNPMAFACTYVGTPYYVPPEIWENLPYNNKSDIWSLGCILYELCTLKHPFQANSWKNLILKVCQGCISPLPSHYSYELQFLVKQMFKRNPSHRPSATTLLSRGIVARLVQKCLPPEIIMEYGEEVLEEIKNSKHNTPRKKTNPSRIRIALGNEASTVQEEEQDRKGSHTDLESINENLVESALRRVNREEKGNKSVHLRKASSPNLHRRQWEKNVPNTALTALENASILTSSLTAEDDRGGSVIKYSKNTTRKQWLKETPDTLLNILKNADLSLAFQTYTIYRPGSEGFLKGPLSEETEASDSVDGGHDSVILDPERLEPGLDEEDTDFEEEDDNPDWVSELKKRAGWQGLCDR

Test [5] has as its target T3, Serine/threonine-protein kinase A-Raf (Homo sapiens, UniProt P10398).
T3 sequence (P10398 whole entry): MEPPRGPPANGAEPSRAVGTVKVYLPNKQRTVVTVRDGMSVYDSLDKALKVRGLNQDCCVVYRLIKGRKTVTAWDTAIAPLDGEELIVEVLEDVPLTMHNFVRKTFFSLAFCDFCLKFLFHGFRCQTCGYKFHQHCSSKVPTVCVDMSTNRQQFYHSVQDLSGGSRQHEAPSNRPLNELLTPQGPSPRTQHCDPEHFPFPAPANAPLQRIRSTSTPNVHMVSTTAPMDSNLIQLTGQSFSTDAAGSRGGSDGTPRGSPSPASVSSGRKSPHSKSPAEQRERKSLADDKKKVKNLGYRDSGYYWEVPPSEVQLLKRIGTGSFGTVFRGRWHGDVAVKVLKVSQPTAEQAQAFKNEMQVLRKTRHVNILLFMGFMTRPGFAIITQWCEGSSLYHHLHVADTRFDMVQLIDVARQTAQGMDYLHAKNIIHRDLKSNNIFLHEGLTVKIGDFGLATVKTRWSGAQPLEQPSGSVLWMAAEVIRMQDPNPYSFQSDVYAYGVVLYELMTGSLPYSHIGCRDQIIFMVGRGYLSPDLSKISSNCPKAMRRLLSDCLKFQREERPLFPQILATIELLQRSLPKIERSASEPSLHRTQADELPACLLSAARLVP

Test [6] deals with T4, Serine/threonine-protein kinase TBK1 (Homo sapiens, UniProt Q9UHD2).
T4 sequence (Q9UHD2 whole entry): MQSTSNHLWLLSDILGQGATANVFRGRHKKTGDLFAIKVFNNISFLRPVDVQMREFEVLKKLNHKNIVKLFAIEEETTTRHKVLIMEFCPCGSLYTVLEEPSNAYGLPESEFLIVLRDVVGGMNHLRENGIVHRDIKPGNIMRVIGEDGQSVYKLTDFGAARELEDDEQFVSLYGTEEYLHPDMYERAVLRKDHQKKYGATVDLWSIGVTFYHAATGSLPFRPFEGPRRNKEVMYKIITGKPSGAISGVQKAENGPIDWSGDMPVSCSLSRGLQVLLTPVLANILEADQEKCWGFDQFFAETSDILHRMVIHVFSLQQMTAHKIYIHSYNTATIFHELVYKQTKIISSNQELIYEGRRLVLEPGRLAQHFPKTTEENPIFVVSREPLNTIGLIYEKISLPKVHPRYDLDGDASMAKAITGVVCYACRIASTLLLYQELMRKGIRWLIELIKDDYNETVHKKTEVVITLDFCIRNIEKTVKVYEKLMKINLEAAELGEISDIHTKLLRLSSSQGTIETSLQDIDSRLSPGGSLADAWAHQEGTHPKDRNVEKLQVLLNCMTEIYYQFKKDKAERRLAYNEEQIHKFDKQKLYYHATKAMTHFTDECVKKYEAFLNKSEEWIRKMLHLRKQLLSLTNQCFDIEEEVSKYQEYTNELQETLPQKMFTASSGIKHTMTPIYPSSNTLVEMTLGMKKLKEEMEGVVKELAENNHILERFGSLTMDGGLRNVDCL

Test [7] concerns the target Mitogen-activated protein kinase kinase kinase kinase 4 (Homo sapiens, UniProt O95819).
Also: in the data inactive means no Kd found up to 30 µM.

Chain of Deoxycytidine kinase (P27707 whole entry): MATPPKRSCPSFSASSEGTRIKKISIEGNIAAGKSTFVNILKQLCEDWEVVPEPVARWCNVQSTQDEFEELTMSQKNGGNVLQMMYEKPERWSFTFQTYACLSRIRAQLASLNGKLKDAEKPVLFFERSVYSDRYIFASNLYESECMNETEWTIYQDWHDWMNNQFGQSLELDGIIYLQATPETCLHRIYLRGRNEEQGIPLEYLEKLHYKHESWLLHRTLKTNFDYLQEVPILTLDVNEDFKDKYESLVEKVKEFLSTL
Chain of Mitogen-activated protein kinase kinase kinase kinase 4 (O95819 whole entry): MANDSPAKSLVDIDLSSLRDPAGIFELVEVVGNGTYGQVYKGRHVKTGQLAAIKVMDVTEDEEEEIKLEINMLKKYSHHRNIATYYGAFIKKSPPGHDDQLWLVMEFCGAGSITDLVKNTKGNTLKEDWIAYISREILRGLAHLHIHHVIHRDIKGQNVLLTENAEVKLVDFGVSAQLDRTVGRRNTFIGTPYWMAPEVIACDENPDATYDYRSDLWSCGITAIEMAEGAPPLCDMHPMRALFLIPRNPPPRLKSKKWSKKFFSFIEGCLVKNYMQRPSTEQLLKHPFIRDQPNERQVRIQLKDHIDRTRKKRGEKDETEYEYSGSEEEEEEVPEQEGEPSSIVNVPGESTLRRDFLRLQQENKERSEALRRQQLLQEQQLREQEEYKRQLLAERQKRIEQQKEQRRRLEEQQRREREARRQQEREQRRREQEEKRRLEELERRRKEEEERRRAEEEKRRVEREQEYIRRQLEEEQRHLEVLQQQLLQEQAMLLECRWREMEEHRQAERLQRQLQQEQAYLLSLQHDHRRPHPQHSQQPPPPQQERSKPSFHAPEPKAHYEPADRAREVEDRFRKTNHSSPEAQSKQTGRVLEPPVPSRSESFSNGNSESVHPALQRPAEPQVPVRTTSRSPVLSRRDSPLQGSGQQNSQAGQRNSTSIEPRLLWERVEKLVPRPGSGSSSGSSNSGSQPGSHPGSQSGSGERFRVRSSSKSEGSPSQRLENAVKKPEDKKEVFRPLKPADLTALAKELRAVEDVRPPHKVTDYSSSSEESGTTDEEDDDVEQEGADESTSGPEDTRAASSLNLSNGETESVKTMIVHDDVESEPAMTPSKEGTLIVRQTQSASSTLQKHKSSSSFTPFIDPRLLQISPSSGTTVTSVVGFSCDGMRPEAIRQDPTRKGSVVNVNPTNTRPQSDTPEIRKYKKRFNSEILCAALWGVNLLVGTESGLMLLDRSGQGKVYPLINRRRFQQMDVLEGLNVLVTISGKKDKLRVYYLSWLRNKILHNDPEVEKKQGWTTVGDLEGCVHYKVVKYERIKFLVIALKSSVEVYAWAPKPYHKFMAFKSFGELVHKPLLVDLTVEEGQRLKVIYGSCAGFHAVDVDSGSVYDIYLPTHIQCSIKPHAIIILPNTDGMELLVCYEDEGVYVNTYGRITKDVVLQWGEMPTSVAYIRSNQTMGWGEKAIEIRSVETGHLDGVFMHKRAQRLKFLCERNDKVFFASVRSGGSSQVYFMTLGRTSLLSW
Chain of Cyclin-dependent kinase 1 (P06493 whole entry, canonical isoform): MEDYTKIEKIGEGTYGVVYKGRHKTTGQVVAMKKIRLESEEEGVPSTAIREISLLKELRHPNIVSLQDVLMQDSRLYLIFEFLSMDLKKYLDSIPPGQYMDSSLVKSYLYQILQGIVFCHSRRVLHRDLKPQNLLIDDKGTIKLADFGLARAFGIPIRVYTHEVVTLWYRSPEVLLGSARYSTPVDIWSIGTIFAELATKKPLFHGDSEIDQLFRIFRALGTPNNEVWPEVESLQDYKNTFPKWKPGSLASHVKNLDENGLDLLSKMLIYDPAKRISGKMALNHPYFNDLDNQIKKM
Chain of Casein kinase I isoform gamma-1 (Q9HCP0 whole entry, canonical isoform): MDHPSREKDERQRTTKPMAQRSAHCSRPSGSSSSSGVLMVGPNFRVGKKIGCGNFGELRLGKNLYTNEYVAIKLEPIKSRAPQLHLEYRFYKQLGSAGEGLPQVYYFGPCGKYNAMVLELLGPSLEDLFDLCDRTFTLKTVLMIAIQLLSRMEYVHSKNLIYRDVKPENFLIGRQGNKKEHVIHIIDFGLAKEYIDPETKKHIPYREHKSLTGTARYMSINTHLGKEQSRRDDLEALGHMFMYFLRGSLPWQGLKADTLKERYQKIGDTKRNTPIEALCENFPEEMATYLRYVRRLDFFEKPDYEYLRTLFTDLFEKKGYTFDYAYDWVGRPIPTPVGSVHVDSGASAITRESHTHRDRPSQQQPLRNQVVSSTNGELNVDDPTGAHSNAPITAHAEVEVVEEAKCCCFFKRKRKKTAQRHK

Usually Kd stands for the equilibrium constant for the complex coming apart. For `CCN(CCCOc1ccc2c(Nc3cc(CC(=O)Nc4cccc(F)c4)n[nH]3)ncnc2c1)CCOP(=O)(O)O` [BARASERTIB], the Kd (in test [1]; in test [2]; on Deoxycytidine kinase; in test [3]; in test [4]) was > 30 µM (inactive) throughout.

As to `C=CCn1c(=O)c2cnc(Nc3ccc(N4CCN(C)CC4)cc3)nc2n1-c1cccc(C(C)(C)O)n1` [ADAVOSERTIB], the Kd was > 30 µM (inactive) in test [5]; > 30 µM (inactive) in test [1]; > 30 µM (inactive) in test [2]; > 30 µM (inactive) at Deoxycytidine kinase; > 30 µM (inactive) in test [3]; 0.837 µM (active) in test [4].

For `COc1cc2c(N3CCN(C(=O)Nc4ccc(OC(C)C)cc4)CC3)ncnc2cc1OCCCN1CCCCC1` [TANDUTINIB], the Kd (in test [5]; on Deoxycytidine kinase) was > 30 µM (inactive) in each case.

Take `COc1cc2c(Oc3ccc4[nH]c(C)cc4c3F)ncnc2cc1OCCCN1CCCC1` [CEDIRANIB]: the Kd (in test [5]; in test [1]; on Deoxycytidine kinase) was > 30 µM (inactive) throughout.

In the case of `CN1CCN(c2nc(C3=C(c4c[nH]c5ccccc45)C(=O)NC3=O)c3ccccc3n2)CC1` [SOTRASTAURIN], the Kd (in test [5]; in test [2]; at Deoxycytidine kinase; in test [3]; in test [4]; in test [6]) was > 30 µM (inactive) throughout.

For the compound `Cn1cnc2c(F)c(Nc3ccc(Br)cc3Cl)c(C(=O)NOCCO)cc21` [SELUMETINIB], the Kd (in test [5]; in test [1]; on Deoxycytidine kinase) was > 30 µM (inactive) throughout.

As for `COc1ccc(-c2ccc3ncc4c(c3c2)n(-c2ccc(N3CCNCC3)c(C(F)(F)F)c2)c(=O)n4C)cn1` [BGT-226 FREE BASE], the Kd (in test [5]; in test [1]; at Deoxycytidine kinase; in test [3]; in test [7]; in test [4]) was > 30 µM (inactive) each time. The Kd in test [6] is > 30 µM (inactive).

In the case of `CN(C)C/C=C/C(=O)Nc1cc2c(Nc3ccc(F)c(Cl)c3)ncnc2cc1O[C@H]1CCOC1` [AFATINIB], the Kd (in test [5]; in test [1]; at Deoxycytidine kinase) was > 30 µM (inactive) each time.

As for `CCOc1ccn(-c2ccc(F)cc2)c(=O)c1C(=O)Nc1ccc(Oc2ccnc(N)c2Cl)c(F)c1` [BMS-777607], the Kd (in test [1]; in test [2]; at Deoxycytidine kinase; in test [3]; in test [4]; in test [6]) was > 30 µM (inactive) throughout.

With `CN(c1ncccc1CNc1nc(Nc2ccc3c(c2)CC(=O)N3)ncc1C(F)(F)F)S(C)(=O)=O` [PF-00562271], the Kd in test [5] is > 30 µM (inactive); in test [1], 1.51 µM (active); at Deoxycytidine kinase, > 30 µM (inactive); in test [3], > 30 µM (inactive); in test [4], > 30 µM (inactive).

Take `CC(C)CC(=O)Nc1[nH]nc2c1CN(C(=O)C1CCN(C)CC1)C2(C)C` [PHA-793887]: the Kd in test [5] is > 30 µM (inactive); in test [1] it was 2.56 µM (active); at Deoxycytidine kinase it was > 30 µM (inactive); in test [3], > 30 µM (inactive); in test [7], > 30 µM (inactive); in test [4] it was > 30 µM (inactive). Further, the Kd in test [6] is > 30 µM (inactive).

`CC1(C)CNc2cc(NC(=O)c3cccnc3NCc3ccncc3)ccc21` [MOTESANIB]: the Kd (in test [5]; in test [1]; at Deoxycytidine kinase) was > 30 µM (inactive) in each case.

In the case of `S=C(NCc1ccc2c(c1)OCO2)N1CCN(c2ncnc3c2oc2ccccc23)CC1` [AMUVATINIB], the Kd (in test [5]; in test [1]; at Deoxycytidine kinase; in test [3]; in test [7]; in test [4]) was > 30 µM (inactive) in each case. The Kd in test [6] was > 30 µM (inactive).

Take `C[C@@]1(C(=O)Nc2ccc(F)nc2)CCCN1c1nc(Nc2cc(C3CC3)n[nH]2)c2cccn2n1` [BMS-754807]: the Kd (in test [5]; in test [1]; on Deoxycytidine kinase) was > 30 µM (inactive) in each case.

Turning to `O=S(=O)(c1cccc2cnccc12)N1CCCNCC1` [FASUDIL], the Kd (in test [5]; in test [2]; at Deoxycytidine kinase; in test [3]; in test [4]) was > 30 µM (inactive) throughout.

As to `N#CCNC(=O)c1ccc(-c2ccnc(Nc3ccc(N4CCOCC4)cc3)n2)cc1` [MOMELOTINIB], the Kd in test [5] was > 30 µM (inactive); in test [1], > 30 µM (inactive); at Deoxycytidine kinase, > 30 µM (inactive); in test [3] it was > 30 µM (inactive); in test [4] it was 0.286 µM (active).

`C[C@]1(O)C[C@@H](c2nc(-c3ccc4ccc(-c5ccccc5)nc4c3)c3c(N)nccn32)C1` [LINSITINIB]: the Kd (in test [5]; at Deoxycytidine kinase; in test [3]; in test [4]; in test [6]) was > 30 µM (inactive) each time.

As to `Cn1c(=O)n(-c2ccc(C(C)(C)C#N)cc2)c2c3cc(-c4cnc5ccccc5c4)ccc3ncc21` [DACTOLISIB], the Kd (in test [5]; in test [1]; in test [2]; on Deoxycytidine kinase; in test [3]; in test [4]) was > 30 µM (inactive) throughout.
